The record followed here is PMC5064022, “KCNE1 induces fenestration in the Kv7.1/KCNE1 channel complex that allows for highly specific pharmacological targeting” (Nature Communications, 2016).

One test has as its system T1, Kv7.2.
T1 construct: expressed in transfected cells
As to the kind of experiment: TEVC, Kv7.2 channels. It counts as cell-based. As to conditions: 1 μM.

A further test concerns the target A344C/KCNE1 (Homo sapiens, UniProt P15382+P51787, A344C). As to the kind of experiment: TEVC, mutant channel A344C/KCNE1 in oocytes. It is filed as cell-based. Particulars: Kv7.1 A344C mutant with KCNE1. From the text:
Ala scanning was previously used to identify specific residues that form the putative binding sites for chromanol and benzodiazepine derivatives that are considered to be classical pore blockers of Kv7.1 channels. Here we applied Ala scanning to multiple segments of the Kv7.1 α-subunit to identify potential AC-1 interaction sites in the extended pore region of Kv7.1/KCNE1 channels (Fig. 3a). In cases where mutation to Ala precluded channel function, alternative residues were introduced. […] Instead, most of these crucial residues cluster around a ‘window' formed uniquely in the preopen–closed state model of the Kv7.1/KCNE1 channel[33] (Fig. 3c, magenta residues). […]
(§1) Template cDNAs (wildtype or mutant human Kv7.1 in pSGEM, wildtype human KCNE1 in pSP64) were linearized with a suitable restriction enzyme (Nhe I/pSGEM, Eco RI/pSP64). cRNA was synthesized from 1 μg linearized cDNA by in vitro transcription (mMessage mMachine T7 or SP6 kit, Ambion, Life Technologies Darmstadt, Germany). cRNA concentrations were determined by photometry (Nanodrop, Peqlab, Erlangen, Germany) and cRNA quality was checked by agarose gel electrophoresis. […]
TEVC measurements were performed using a TurboTec-10CD amplifier (npi Electronic, Tamm, Germany) and an ITC-16 AD/DA-interface (Instrutech Corporation, Port Washington, New York, USA). […] Tail currents were recorded at −120 mV. […]

For the next test, the system named is T2, homomeric Kv7.1.
T2 construct: expressed in transfected cells; host or cells: Xenopus oocytes, cRNA injected
The test is described as follows: TEVC, homomeric Kv7.1 channels in oocytes. It counts as cell-based, human. As to the method: Figure 1 AC-1 inhibits Kv7.1 channels only in the presence of KCNE1. (a) Structure of adamantane compound AC-1. (b) Concentration-response relationship for inhibition of Kv7.1/KCNE channel currents by AC-1. Kv7.1/KCNE1 channel currents were activated by repetitive 7 s pulses to +40 mV applied from a holding potential of −80 mV. Inhibition was determined as percent change in current amplitude at the end of the depolarizing test pulse to +40 mV. Data were fitted (smooth curve) to the Hill equation (n=5–70,±s.e.m.). (c) The inhibitory effect of different AC-1 concentrations on Kv7.1/KCNE1 channels was determined by repetitive 7 s pulses to +40 mV applied from a holding potential of −80 mV. […] Inhibition of current was determined as described above and plotted against the amount (in ng) of cRNA injected into individual oocytes. […]
as §1

One may read the IC50 as the concentration needed to halve the response being measured. Low readings indicate inhibition by little substance, high ones a need for much substance. Take `CC(C)(Oc1ccc(Cl)cc1)C(=O)NC1C2CC3CC1CC(NS(C)(=O)=O)(C3)C2` (stereo not shown) [AC-1, 2-(4-chlorophenoxy)-2-methyl-N-[5-[(methylsulfonyl)amino]tricyclo[3.3.1.13,7]dec-2-yl]-propanamide]: the “effect on Kv7.2” value in the test with Kv7.2 is recorded as “does not affect”. It took 1000 ± 200 nM to reach half-maximal inhibition against A344C/KCNE1 (IC50). In addition, the “effect on homomeric Kv7.1” value with homomeric Kv7.1 (1 μM) was “does not affect”. Besides, the “effect of different concentrations on Kv7.1 homotetramers” value in the test with homomeric Kv7.1 (different concentrations, up to 10 μM, +40 mV) was “Lack of effect”.
